Assay results reported in patent US20040259942A1, “Modulation of stat activity” (priority 2001, published 2004).

Key:
STAT3 = assay: Serum-induced STAT3 tyrosine phosphorylation (immunoblot); type: cell-based, human
Method: (§1) For immunoprecipitation and immunoblotting experiments, cells were grown to confluence in 10 cm dishes and maintained in full medium or starved in serum-free medium overnight before the application of appropriate stimuli. Lysates were prepared in TBSN buffer (50 mM Tris-HCl pH7.5, 150 mM NaCl, 1 mM EDTA, 1% NP-40) supplemented with protease inhibitors (1 mM Na3 VO4, 10 mM Na4P2O7, 10 mM NaF, 5 mM EGTA, 10 mM Benzamidine, 0.2 mM PMSF and 1 μg/ml each of leupeptin, aprotinin, pepstatin). Lysates were cleared by centrifugation at 16,000×g for 10 minutes and used directly for immunoprecipitations or stored at −20° C. for further use.
(§2) Equal amounts of lysates were incubated with the appropriate antibody for 2 hours at 4° C.
(§3) Immune complexes were then allowed to bind to protein A-Sepharose beads for 1 hour at 4° C. and collected by centrifugation. Immunoprecipitates were washed three times in 100 mM Tris-HC1 pH 7.5, 100 nM NaCl, 1 mM EDTA, 0.1 mM PMSF, 0.5% NP-40. Thereafter, samples were taken up in sodium dodecyl sulphate (SDS) loading buffer and boiled for 5 min.
Samples were separated by electrophoresis through 6% polyacrylamide-SDS gels. Proteins were then transferred to polyvinylidene difluoride (PVDF) membranes with a semi-dry electroblotting apparatus. The membranes were incubated with appropriate primary antibodies at room temperature for 1 hour or 4° C. overnight according to suppliers' instructions, washed and stained with horseradish peroxidase-coupled secondary antibodies. The membranes were developed with an enhanced chemiluminescence kit (Amersham).
as §1, with “Na3VO4,” for “Na3 VO4,”, “aprotinin and” for “aprotinin,”, “use. AG490 was purchased from Sigma; PD153035 was provided by Glaxo-Smith-Kline and PD168393 was purchased from Calbiochem.” for “use.”
as §3, with “Equal amounts of lysates were incubated with the appropriate antibody for 2 hours at 4° C. Immune” for “Immune”, “in 10” for “in 100”, “mM Tris-HCl” for “mM Tris-HC1”, “100 mM” for “100 nM”

Akt/PKB = Akt/PKB S473 phosphorylation in serum-stimulated cells (P13K survival pathway); type: cell-based, human; details: for Akt/PKB phosphorylation in serum-stimulated cells: BR293, MCF-7 and MDA-MB-468 cells, Wortmannin 200 nM, AHLs 100 μM
Method: Cell lysates were then prepared and analysed by Western blotting for Akt/PKB phosphorylation with an antibody specific for Akt/PKB phosphorylated on S473 (p-Akt, upper panel) and subsequently for total Akt/PKB content with an antibody for Akt/PKB (lower panel).
In the bottom section of FIG. 21, BR293 cells were serum-starved (lane 1) or starved and stimulated with 10% FCS for 2 hours alone (lane 2) or in the presence of increasing concentrations of OdDHL (lanes 3-6) or 100 μM OHHL (lane 7) or 200 nM Wortmannin (lane 8). Cell lysates were prepared and analysed by Western blotting for Akt/PKB phosphorylation with an antibody specific for Akt/PKB phosphorylated on S473 (upper panel) and subsequently for total Alt/PKB content with an antibody for Akt/PKB (lower panel).

ErbB1 = target: T1, ErbB1 (Homo sapiens, UniProt P00533); assay: Tyrosine phosphorylation of ErbB1 (EGF-R): immunoprecipitation and anti-phosphotyrosine immunoblot; type: cell-based; details: MDA-MB-468 cells
T1 construct: Lysates were prepared, from which ErbB1 proteins were collected as immune complexes; endogenous in cells; host or cells: MDA-MB-468

JAK2 = target: T2, JAK2 (Homo sapiens, UniProt O60674); assay: Serum-induced JAK2 tyrosine phosphorylation (immunoblot); type: cell-based; details: preliminary data, unpublished
T2 construct: endogenous in cells; host or cells: BR293
Method: as §1, §2, §3
Samples were separated by electrophoresis through 6% polyacrylamide-SDS gels. Proteins were then transferred to polyvinylidene difluoride (PVDF) membranes with a semi-dry electroblotting apparatus. […]

COS1 cells = assay: Cell proliferation assay (cell counting); type: cell-based, simian; details: cells expressing low levels of STAT proteins; 48 hours
Method: Equal numbers of BR293, MCF-10F, MCF-7, MDA-MB-468, HKEK293 and COS1 cells were seeded in the appropriate growth medium into 10 cm dishes. Cells were allowed to grow in the presence of various concentrations of OdDHL or OHHL for 24 or 48 hours. For the 48-hour time points, fresh medium containing the appropriate inhibitor was applied to the cells after 24 hours. Controls were allowed to grow for 48 hours in the absence of inhibitor. Thereafter, all the cells were washed twice with ice cold PBS, harvested and counted under a phase-contrast microscope. Values are expressed as averages ±S.D. (n=3).

[1] = test system: poly ADP-ribose polymerase (PARP); assay: PARP cleavage by Western blotting; type: cell-based, human; details: 100 μM, 18 hours
Method: OdDHL induces apoptosis of BC cells (a) MCF-7 cells were cultured in full medium alone or in the presence of 1001M OdDHL or 100 μM OHHL. After 18 hours cells were fixed, stained with DAPI and examined by confocal microscopy. Left-hand panels show DAPI, right-hand panels show the corresponding phase contrast and middle panels the image overlays. (b) MDA-MB-468 cells were cultured in full medium alone or in the presence of 100 μM OdDHL or 100 μM OHHL. After 18 hours cells were fixed, stained and examined as in (a). (c) BR293, MCF-7 and MDA-MD-468 cells were cultured in full medium alone (lanes 1, 3, 5) or in the presence of 100 μM OdDHL (lanes 2, 4, 6) or 400 μM etoposide (lane 7). After 18 hours cells were lysed and analysed for PARP cleavage by Western blotting with an anti-PARP antibody. Full length PARP is labelled and the lower arrow indicates the major caspase cleavage fragment.

T1 sequence (P00533 25-1210): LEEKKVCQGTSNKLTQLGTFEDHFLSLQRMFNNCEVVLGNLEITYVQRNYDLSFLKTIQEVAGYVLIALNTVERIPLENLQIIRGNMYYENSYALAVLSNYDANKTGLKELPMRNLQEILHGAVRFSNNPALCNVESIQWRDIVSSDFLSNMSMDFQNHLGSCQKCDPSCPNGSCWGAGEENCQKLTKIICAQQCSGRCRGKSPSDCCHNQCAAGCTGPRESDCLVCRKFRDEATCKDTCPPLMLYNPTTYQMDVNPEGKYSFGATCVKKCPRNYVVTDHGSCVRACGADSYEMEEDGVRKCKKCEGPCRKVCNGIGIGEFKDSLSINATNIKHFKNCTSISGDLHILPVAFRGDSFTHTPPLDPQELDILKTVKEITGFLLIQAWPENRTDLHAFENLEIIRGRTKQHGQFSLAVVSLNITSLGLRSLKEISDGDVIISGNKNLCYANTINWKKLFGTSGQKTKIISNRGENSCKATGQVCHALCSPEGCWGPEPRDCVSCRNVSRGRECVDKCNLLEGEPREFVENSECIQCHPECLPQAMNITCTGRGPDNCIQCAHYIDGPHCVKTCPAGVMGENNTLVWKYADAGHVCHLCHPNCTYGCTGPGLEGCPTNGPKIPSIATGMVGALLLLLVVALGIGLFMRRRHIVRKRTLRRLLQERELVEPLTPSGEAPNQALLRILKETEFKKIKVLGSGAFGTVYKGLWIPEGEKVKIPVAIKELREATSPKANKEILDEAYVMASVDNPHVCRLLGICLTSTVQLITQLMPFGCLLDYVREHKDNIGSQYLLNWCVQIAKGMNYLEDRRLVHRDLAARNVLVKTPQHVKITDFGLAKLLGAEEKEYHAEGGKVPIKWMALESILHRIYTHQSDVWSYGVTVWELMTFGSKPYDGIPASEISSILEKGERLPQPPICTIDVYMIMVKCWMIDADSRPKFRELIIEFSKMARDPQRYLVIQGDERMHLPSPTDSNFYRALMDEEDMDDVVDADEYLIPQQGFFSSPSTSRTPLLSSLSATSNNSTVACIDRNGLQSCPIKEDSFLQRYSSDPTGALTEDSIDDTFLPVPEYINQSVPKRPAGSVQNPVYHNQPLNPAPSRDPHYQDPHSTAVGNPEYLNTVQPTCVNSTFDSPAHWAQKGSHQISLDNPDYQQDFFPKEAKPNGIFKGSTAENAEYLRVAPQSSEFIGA
T2 sequence (O60674 whole entry): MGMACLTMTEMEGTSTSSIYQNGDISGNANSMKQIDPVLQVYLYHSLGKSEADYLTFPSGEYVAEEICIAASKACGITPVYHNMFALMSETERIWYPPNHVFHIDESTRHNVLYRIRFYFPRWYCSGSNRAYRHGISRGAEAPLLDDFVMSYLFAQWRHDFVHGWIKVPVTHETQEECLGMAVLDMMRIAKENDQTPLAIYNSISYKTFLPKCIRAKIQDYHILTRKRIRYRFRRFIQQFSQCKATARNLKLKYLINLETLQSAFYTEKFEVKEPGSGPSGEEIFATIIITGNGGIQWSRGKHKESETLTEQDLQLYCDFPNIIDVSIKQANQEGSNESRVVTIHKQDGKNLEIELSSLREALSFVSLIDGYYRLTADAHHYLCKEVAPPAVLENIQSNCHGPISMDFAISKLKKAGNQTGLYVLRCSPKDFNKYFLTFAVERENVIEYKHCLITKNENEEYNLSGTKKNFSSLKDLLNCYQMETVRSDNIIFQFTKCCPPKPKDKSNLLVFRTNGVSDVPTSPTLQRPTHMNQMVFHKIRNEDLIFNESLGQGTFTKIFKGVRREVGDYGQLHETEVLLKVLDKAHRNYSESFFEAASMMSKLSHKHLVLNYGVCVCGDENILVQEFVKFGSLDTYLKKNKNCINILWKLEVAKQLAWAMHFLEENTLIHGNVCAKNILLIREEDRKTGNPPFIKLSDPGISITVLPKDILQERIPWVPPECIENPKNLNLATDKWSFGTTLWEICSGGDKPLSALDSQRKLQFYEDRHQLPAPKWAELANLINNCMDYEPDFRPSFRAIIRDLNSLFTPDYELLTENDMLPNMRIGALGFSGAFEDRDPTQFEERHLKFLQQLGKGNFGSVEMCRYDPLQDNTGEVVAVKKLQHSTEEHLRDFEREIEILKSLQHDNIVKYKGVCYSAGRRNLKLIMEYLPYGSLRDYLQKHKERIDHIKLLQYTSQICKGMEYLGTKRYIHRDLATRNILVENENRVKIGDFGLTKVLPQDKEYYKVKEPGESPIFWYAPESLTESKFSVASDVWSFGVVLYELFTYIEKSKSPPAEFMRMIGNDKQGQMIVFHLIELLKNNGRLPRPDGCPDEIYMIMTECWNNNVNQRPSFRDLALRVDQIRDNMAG

| SMILES | effect on serum-induced STAT3 tyrosine phosphorylation (STAT3; BR293 cells, 100 μM) | Akt/PKB phosphorylation in serum-stimulated cells (Akt/PKB) | receptor tyrosine phosphorylation in response to EGF stimulation (ErbB1; 100 μM and even at lower concentrations (101M as printed)) | tyrosine phosphorylation of the EGF-R in unstimulated cells (ErbB1; OdDHL alone at 100 μM) | STAT3 phosphorylation at sub-inhibitory concentration (STAT3; BR293 cells, 50 μM OdDHL) | delayed STAT3 phosphorylation in response to serum (STAT3; BR293 cells, 100 μM pretreatment (FIG. 18c)) | serum-induced phosphorylation of STAT3 (STAT3; BR293 cells, pre-incubation (FIG. 11 upper panel)) | concentration at which serum-induced STAT3 tyrosine phosphorylation was inhibited (STAT3; BR293 cells, pretreatment 15 minutes with increasing concentrations) [µM] | threshold concentration for inactivation of serum-induced STAT3 phosphorylation (STAT3; FIG. 15) | JAK2 phosphorylation in serum-stimulated cells (JAK2) | effect on proliferation (COS1 cells) | PARP cleavage ([1]; BR293 cells) | PARP cleavage ([1]; MCF-7 cells) | PARP cleavage ([1]; MDA-MB-468 cells, compared with 400 μM etoposide) | effective concentration for blocking Akt/PKB phosphorylation (Akt/PKB; titration in BR293 cells) |
| --- | --- | --- | --- | --- | --- | --- | --- | --- | --- | --- | --- | --- | --- | --- | --- |
| CCCC(=O)CC(=O)N[C@H]1CCOC1=O [OHHL, N-(3-oxohexanoyl)-L-homoserine lactone, reference compound] | only a slight effect | had no effect | – | – | – | – | – | – | – | – | – | – | – | – | – |
| CCCCCCCCCC(=O)CC(=O)N[C@H]1CCOC1=O [OdDHL, N-(3-oxo-dodecanoyl)-L-homoserine lactone] | – | blocked phosphorylation of Akt/PKB to a similar degree as Wortmannin | potentiated receptor tyrosine phosphorylation in response to EGF stimulation several fold | caused an increase in detectable tyrosine phosphorylation of the EGF-R | small increase | prevented the delayed STAT3 phosphorylation in response to serum | blocked the serum-induced phosphorylation of STAT3 | 100 | above 50 μM | does not interfere with JAK2 phosphorylation | unaffected | characteristic cleavage fragment was detected | induced PARP cleavage | to the same extent as etoposide | above 50 μM |
